Patent publication US12606551B2, “Salt of tetrahydroisoquinoline derivative, preparation method therefor, and medical use thereof” (ZHEJIANG HISUN PHARMACEUTICAL CO., LTD., priority 2020, dated 2026)
Converted amounts (≈) assume the structure as drawn.

Experiments:
[1] = Pharmacokinetic assay in SD rats; format: in vivo; conditions: PO 60 mg/kg; for AUC(0-inf) / Cmax / half-life / MRT: both sexes, Sprague-Dawley, rat, plasma; for AUC(0-inf): read-out: Area under the curve AUC0-∞; for Cmax: read-out: Blood concentration Cmax; for half-life: read-out: Half life T½ (converted); for MRT: read-out: Residence time MRT
Description: SD rats were taken as the test animals, and the compounds of the present invention were administrated to the rats by intravenous injection or gavage. Then the drug concentrations in the plasma at different times were measured using LC/MS/MS method to study the pharmacokinetic characteristics of the compounds of the present invention in rats.
Six healthy adult Sprague Dawley (SD) male rats were purchased from Vital River Laboratory Animal Technology Co., Ltd.
76.32 mg of compound 1m was weighed and dissolved in 12.72 mL of 0.5% sodium carboxymethyl cellulose (CMC-Na), the mixture was mixed by vortex for 1 minute until the compound was completely suspended, and the final prepared concentration was 6 mg/mL;
76.61 mg of compound 1 was weighed and dissolved in 12.768 mL of 0.5% sodium carboxymethyl cellulose (CMC-Na), the mixture was mixed by vortex for 1 minute until the compound was completely suspended, and the final prepared concentration was 6 mg/mL.
Compounds 2 to 4 were weighed and dissolved in an appropriate amount of 0.5% sodium carboxymethyl cellulose (CMC-Na), the mixture was mixed by vortex for 1 minute until the compound was completely suspended, and the final prepared concentration was 6 mg/mL.
Six healthy adult SD rats, half male and half female, were divided into 2 groups, 3 rats in each group. The rats were fasted overnight, and then intragastrically administered (po) with the compound 1m or compounds 1 to 4 of the present invention at a dose of 60 mg/kg.
About 0.25 mL of blood was collected from the jugular vein before the administration and 0.25 hours, 0.5 hours, 1 hour, 2 hours, 4 hours, 6 hours, 8 hours and 24 hours after the administration, and heparin sodium was used for anticoagulation. The blood samples were placed on ice after collection, and then centrifuged to separate the plasma (centrifugation conditions: 7000 rpm, 5 minutes). The collected plasma was stored below −70° C. until analysis.
300 μL of methanol (comprising internal standard working solution, Loratadine 800 ng/mL) was added to 100 μL of plasma sample, then the mixture was mixed by vortex for 5 minutes, then the obtained mixture was centrifuged at 10,000 rpm for 10 minutes, and 1 μL of the resulting mixture was taken and subjected to LC-MS/MS analysis.

[2] = Solubility test; format: physicochemical
Description: According to the conventional method for solubility assay, the solubility of the compounds of the present invention in the following four different systems was tested: phosphate salt buffer PBS (pH7.4), methanol, 0.1% HCl and water.

[3] = target: T1, human AT2R (Homo sapiens, UniProt P50052); test: Antagonistic activity against human AT2R ligand binding (Tag-lite HTRF); conditions: Tb-labeled-AT2R cells, red agonist fluorescent ligand, 1 hour at 25° C.
T1 construct: Tb (terbium) label on the receptor; expressed in transfected cells
T1 sequence (P50052 1-363): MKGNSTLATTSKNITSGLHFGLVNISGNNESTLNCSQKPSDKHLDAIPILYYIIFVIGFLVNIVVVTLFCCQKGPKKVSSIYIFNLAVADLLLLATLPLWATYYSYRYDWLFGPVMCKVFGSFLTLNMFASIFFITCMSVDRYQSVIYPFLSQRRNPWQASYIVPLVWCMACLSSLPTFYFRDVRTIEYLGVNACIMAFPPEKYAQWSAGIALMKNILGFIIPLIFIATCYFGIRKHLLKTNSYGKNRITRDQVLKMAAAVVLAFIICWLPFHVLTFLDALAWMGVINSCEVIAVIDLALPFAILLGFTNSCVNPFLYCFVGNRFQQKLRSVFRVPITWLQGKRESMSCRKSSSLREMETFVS
Source text: Test Example 1 Test of the antagonistic activity of the compounds of the present invention against human AT2R ligand binding.
Angiotensin II Type-2 receptor (ATR) is involved in neuronal differentiation and regeneration, cell proliferation and angiogenesis, and maintenance of bone mass. ATR inhibitors can be used for treating pain and abnormal neuroregenerative diseases, inhibiting the proliferation of tumor cells and increasing bone mass. In the following methods, the degree of antagonism of the compounds of the present invention against AT2R was studied through AT2 ligand binding assay.
According to standard methods, test compounds (compound 1m and compounds 1-4) were respectively dissolved in dimethyl sulfoxide to be prepared into stock solutions of 10 mM.
(2) The test compound was subjected to 5-fold dilution with a total of 10 concentration gradients;
(3) The diluted compound in step (2) was transferred to a working plate (3657, Corning) at 160 nL/well, 200 g at room temperature for 1 minute; […]
(11) The reaction plate was centrifuged at 200 g for 1 minute at room temperature, then kept still at room temperature 25° C. for 1 hour, and centrifuged at 200 g for 1 minute at room temperature. Data were collected using Envision HTRF microplate reader, and IC50 was calculated using nonlinear fitting formula.

[4] = methanol, organic solvent or mixture

Row | Compound | Increase of area under the curve compared with compound 1m ([1]; versus free acid compound 1m) | Increase of plasma concentration compared with compound 1m ([1]; versus free acid compound 1m) | AUC(0-inf) [1] | Cmax [1] | half-life [1] | MRT [1] | solubility ([2]; aqueous buffer, PBS (pH 7.4)) | solubility [2, 4] | solubility ([2]; water) | IC50 [3]
1 | COc1ccc(COc2c(OC)ccc3c2C[C@@H](C(=O)[O-])N(c2nc4ccc(F)cc4o2)C3)nc1.[Na+] [Compound 1] | 14 times | more than 50 times | 328 ± 53.2 µg·h/mL | 127 ± 12.7 µg/mL | 3.57 ± 0.85 h | 2.59 ± 0.41 h | 8690 µg/mL | > 10000 µg/mL | 6410 µg/mL | 6 nM
2 | COc1ccc(COc2c(OC)ccc3c2C[C@@H](C(=O)O)N(c2nc4ccc(F)cc4o2)C3)nc1 [Compound 1m] |  |  | 22.2 ± 9.1 µg·h/mL | 2.4 ± 0.53 µg/mL | 3.73 ± 1.25 h | 6.13 ± 1.13 h | 150 µg/mL (≈ 313 µM) | 340 µg/mL (≈ 709 µM) | 30 µg/mL (≈ 62.6 µM) | 
